“And” between values parts separate entries of the source, which are not always exact repeats. Identical values can stand only once. Marks after values point to notes of the source that are not given here.
How the values were obtained:
[1] = system: MDA-MB-231 human breast cancer tumors; assay: Contrast enhanced 2D spin echo MRI, SI enhancement of tumors (section I); assay type: in vivo, athymic nude mice; conditions: 2D SE images; for SI enhancement ratio (SI post/SI pre) of the whole untreated tumor: Gd-(DTPA-BMA) 0.1 mmol-Gd/kg, GDCC-40 0.05 mmol-Gd/kg i.v.; for residual tumor enhancement ratio (SI post/SI pre): residual tumor after treatment, Gd-(DTPA-BMA) 0.1, GDCC-40 0.05 mmol-Gd/kg i.v.
[2] = system: MDA-MB-231 human breast cancer tumors; assay: DCE-MRI with linear compartmental model, PV and FLR, SI time curves (section I); assay type: in vivo, athymic nude mice; conditions: for FLR, tumor center / FLR, tumor rim / FLR, whole tumor: fractional leakage rate; for FLR, tumor center / FLR, tumor rim / FLR, whole tumor / PV, tumor center / PV, tumor rim / PV, whole tumor: GDCC-40 0.05, Gd-DTPA-BMA 0.1 mmol-Gd/kg; for PV, tumor center / PV, tumor rim / PV, whole tumor: plasma volume; for PV values (range over tumor regions, Table 5) / estimated FLR values (range over tumor regions, Table 5): tumor center to tumor rim
[3] = system: HT-29 human colon carcinoma; assay: DCE-MRI assessment of anti-angiogenic effect of Avastin, K^trans and fPV of tumor rim; assay type: in vivo, NCr-nu/nu nude mice; conditions: for K^trans 36 h after treatment / fpv 36 h after treatment: 36 h after initiating Avastin 200 μg/mouse i.p.; for K^trans 7 days after treatment / fpv 7 days after treatment: 7 days after initiating Avastin 200 μg/mouse i.p. every 2 days; for K^trans pretreatment / fpv pretreatment: before Avastin, GDCC40K 0.05, Omniscan 0.1 mmol-Gd/kg
[4] = system: MDA-MB-231 human breast cancer tumors; assay: DCE-MRI with linear compartmental model, PV, FLR and PS (section II); assay type: in vivo, athymic nude mice
[5] = system: MDA-MB-231 human breast cancer tumors; assay: 2D spin echo MRI with various doses of GDCC-40 (section II); assay type: in vivo, athymic nude mice; conditions: 2D SE images
[6] = reference (36); cited from earlier work
[7] = in mice body; cited from earlier work
[8] = system: HT-29 human colon carcinoma; assay: Effect of Avastin on growth of HT-29 colon cancer; assay type: in vivo, NCr-nu/nu nude mice; conditions: 36 h after Avastin-treatment, 200 μg/mouse i.p.; pre-treatment 508±185 mm^3
Method: The study protocol was approved by the local ethics committee for animal care and use. HT-29 human colon carcinoma cell line was purchased from American Type Culture Collection (ATCC, Manassas, Va.) with ATCC number HTB-38™. HT-29 cell line was cultured using ATCC complete growth medium (5 McCoy's Medium with 10% fetal bovine serum).
Athymic female NCr-nu/nu nude mice at 4 weeks were purchased form National Cancer Institute at Frederick, M D. Concentrated HT-29 cells in complete medium was mixed with Matrigel basement membrane matrix (BD Biosciences, San Jose, Calif.) at 1:1 ratio. 2×10^6 cells in 100 μl mixture were implanted s.c. in the flank of 12 mice weighing about 23 g.
Animals were selected for study when the tumors reached approximately 1 cm in diameter (about 3 weeks after tumor cells inoculation) and were randomly divided into two groups (each group n=6, group1 and group2). One group (group1) underwent DCE-MRI with macromolecular contrast agent-GDCC40K (MW: 40 KDa), and another group (group2) underwent DCE-MRI with small molecular weight contrast agent—Ominiscan (MW: 574 Da). Before treatment, Ominiscan was injected at 0.1 mmol-Gd/kg for […], GDCC40OK (40K Da) was injected at 0.05 mmol-Gd/kg for […]. […]
In addition, tumor size of all animals was determined using a caliper during the study.

human VEGF-A = conditions: in vivo; cited from earlier work
Chain of human VEGF-A (P15692 207-311 limits assumed): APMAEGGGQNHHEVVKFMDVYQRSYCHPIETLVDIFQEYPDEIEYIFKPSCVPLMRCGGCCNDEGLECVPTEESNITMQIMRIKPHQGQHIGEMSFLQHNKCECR

| Compound | SI enhancement ratio (SI post/SI pre) of the whole untreated tumor [1] | residual tumor enhancement ratio (SI post/SI pre) [1] | time at which SI of muscle reached plateau ([2]; DCE-MRI time course) | time at which SI of tumor rim reached a maximum ([2]; DCE-MRI time course) | FLR, tumor center [2] | FLR, tumor rim [2] | FLR, whole tumor [2] | PV, tumor center [2] | PV, tumor rim [2] | PV, whole tumor [2] | PV values (range over tumor regions, Table 5) [2] | estimated FLR values (range over tumor regions, Table 5) [2] [h⁻¹] | K^trans 36 h after treatment [3] | fpv 36 h after treatment [3] | K^trans 7 days after treatment [3] | fpv 7 days after treatment [3] | K^trans pretreatment [3] | fpv pretreatment [3] | further results |
| --- | --- | --- | --- | --- | --- | --- | --- | --- | --- | --- | --- | --- | --- | --- | --- | --- | --- | --- | --- |
| CNC(=O)CN(CCN(CCN(CC(=O)[O-])CC(=O)NC)CC(=O)[O-])CC(=O)[O-].[Gd+3] [Gd-DTPA-BMA, gadodiamide, reference compound] | 1.60±0.19 | 1.66±0.10 | about 1.5 min | ~7 min | 9.93 ± 3.19 h⁻¹ | 28.42 ± 4.36 h⁻¹ | 20.86 ± 1.18 h⁻¹ | 0.098 ± 0.019 | 0.190 ± 0.018 | 0.138 ± 0.020 | 0.098 to 0.190 | 14.93 to 28.42 | 0.066 ± 0.047 | 0.062 ± 0.039 | 0.069 ± 0.055 | 0.137 ± 0.034 | 0.07 ± 0.013 | 0.102 ± 0.047 | time at which tumor rim/muscle SI ratio reached plateau ([2]; DCE-MRI time course): ≤ 2 min |
| (Gd-DTPA)-cystamine copolymers [GDCC-40] | 1.65±0.21 | 1.51±0.19 | about 1.5 min | about 12 min | 3.24 ± 1.10* 1/hr | 5.21 ± 0.88* 1/hr | 4.57 ± 0.91* 1/hr | 0.058 ± 0.046 | 0.082 ± 0.038 | 0.076 ± 0.032 | 0.058 to 0.082 | 3.24 to 5.21 | 0.008 ± 0.004 | 0.008 ± 0.005 | 0.028 ± 0.029 | 0.030 ± 0.022 | 0.014 ± 0.002 | 0.028 ± 0.005 | ratio of SI at the tumor rim to SI of the muscle ([2]; at 15 min): more than 3; time after injection to reach contrast (SI of tumor rim to SI of muscle) similar to Gd-DTPA-BMA ([2]; mouse, in vivo): about 4 min; FLR, untreated tumor ([4]; 0.01 mmol-Gd/kg): 6.05 and 6.05 ± 3.58; PS, untreated tumor ([4]; 0.01 mmol-Gd/kg): 0.997 ± 0.613; PV, untreated tumor ([4]; 0.01 mmol-Gd/kg): 0.124 and 0.124 ± 0.045; FLR, untreated tumor ([4]; 0.025 mmol-Gd/kg): 5.06 and 5.06 ± 1.84; PS, untreated tumor ([4]; 0.025 mmol-Gd/kg): 0.611 ± 0.351; PV, untreated tumor ([4]; 0.025 mmol-Gd/kg): 0.123 and 0.123 ± 0.059; FLR, untreated tumor ([4]; 0.05 mmol-Gd/kg): 3.95 ± 0.81; PS, untreated tumor ([4]; 0.05 mmol-Gd/kg): 0.517 ± 0.216; PV, untreated tumor ([4]; 0.05 mmol-Gd/kg): 0.103 ± 0.043; untreated tumor enhancement ([5]; 0.01 mmol-Gd/kg): 0.14±0.03; untreated tumor enhancement ([5]; 0.025 mmol-Gd/kg): 0.26±0.05; untreated tumor enhancement ([5]; 0.05 mmol-Gd/kg): 0.62±0.19 |
| Albumin-Gd-DTPA | – | – | – | – | – | – | – | – | – | – | – | – | – | – | – | – | – | – | FLR values estimated using Albumin-Gd-DTPA [6]: 1.27 to 8.10 h⁻¹; PV values estimated using Albumin-Gd-DTPA [6]: 0.023 to 0.065 |
| Bevacizumab [Avastin] | – | – | – | – | – | – | – | – | – | – | – | – | – | – | – | – | – | – | terminal half-life [7]: 1-2 weeks; tumor size [8]: 510±171 mm^3; dose enough to completely inhibit human VEGF-A (human VEGF-A): 50-100 μg/mouse |

From US20100284927A1, “USE OF MRI CONTRAST AGENTS FOR EVALUATING THE TREATMENT OF TUMORS” (University of Utah Research Foundation, priority 2007, published 2010)
